# Data taken from patent publication US20240207264A1, “PHARMACEUTICAL COMPOSITIONS COMPRISING INHIBITORS OF THE ANDROGEN RECEPTOR AND USES THEREOF” (ESSA PHARMA INC., priority 2021, published 2024).
# Key:
# PC-3 = PC-3 prostate cancer xenograft model; assay type: in vivo; conditions: PC-3 (non functional AR), intact male mice, 15 mg/kg, Solution, qd28
# Experimental: (§1) Compound A's activity was measured in a variety of castrate-sensitive and castrate-resistant prostate cancer (CRPC) xenograft models (Table 32).
# LNCaP95 = LNCaP95 prostate cancer xenograft model; assay type: in vivo; conditions: LNCaP95 (high level AR-V7), castrated male mice, 15 mg/kg, Solution, qd24
# Experimental: as §1
# LNCaP = LNCaP prostate cancer xenograft model; assay type: in vivo; conditions: LNCaP (AR FL), castrated male mice, 30 mg/kg, Solution, qd24
# Experimental: as §1
# HID28 = test: Enzalutamide resistant patient-derived xenograft (PDX) model HID28; assay type: in vivo, nude mice; conditions: HID28 PDX (AR+ PSA+), castrated male mice, 15 mg/kg, Solution, qd28
# Experimental: as §1
# For example, intact male nude mice were engrafted with HID28 tumor fragments and once tumors reached ˜150 mm^3 the mice were castrated. The mice were enrolled in the experiment once the tumors started to regrow, 10 days post-castration. Compound A was tested in the HID28 PDX model at 60 mg/kg, QD for 28 days using SDD formulation with HPMCAS-H in 0.5% Methocel A4M in water.
# Mean tumor volume in castrated nude mice bearing enzalutamide resistant patient-derived xenograft (PDX) model HID28 was measured after oral treatment with solid dispersion composition of Compound A or enzalutamide for 28 days (n=6-7 per group) is shown in FIG. 16B.
# VCaP tumors = test: VCaP prostate cancer xenograft model; assay type: in vivo, SCID Beige male mice; conditions: VCaP (amplified AR, some AR-V7), castrated male mice, 15 mg/kg, Solution, qd24
# [1] = Amorphous solubility by slow addition from organic stock, UV/scattering detection; assay type: physicochemical; conditions: for solubility: kinetic from dmso stock
# Excerpt: Solubility: Generally, the solubility of an amorphous form is higher than that of the corresponding crystal form, due to the lack of crystalline lattice forces in the amorphous state. Solubility of the amorphous form of Compound A was studied by slow addition of the amorphous form from an organic stock solution into the pH 6.5 phosphate-buffered saline (PBS) solution or 0.5% wt simulated intestinal fluid (SIF) in pH 6.5 PBS. When the amorphous solubility is reached, a drug-rich phase forms which typically scatters light (e.g., liquid-liquid phase separation or LLPS), which can be detected by scattering of UV/Visible light and/or by dynamic light scattering (DLS).
# No scattering event prior to crystallization was observed.
# [2] = Gastric-to-intestinal buffer (G-IB) transfer dissolution test; assay type: physicochemical; conditions: 0.5% SIF in PBS pH 6.5, dose 150 μgA/mL
# Experimental: Dissolution: The crystalline Compound A and the five SDD compositions (A-E from Example 4) is were tested in a 2-stage dissolution test designed to evaluate dissolution rate as well as inhibition of crystallization on transfer from simulated gastric to simulated intestinal media. Additionally, SDD composition E was also tested with additional HPMCAS-HF powder at a ratio of 1:1 SDD/HPMCAS-HF (SDD composition F).
# For the gastric-to-intestinal buffer (G-IB) transfer dissolution test, pH 2 (“gastric”) media was added to each sample at a target dose concentration of 300 μgA/mL. After 30 minutes of exposure to gastric media, concentrated simulated intestinal buffer (TB) is added to reach a final composition of 0.5% SIF in PBS, pH 6.5 at half the dose concentration (150 μgA/mL). The concentration was monitored by U fiber optic probes in situ as well as being assessed by either microcentrifugation (15,800×g) or ultracentrifugation (380,000×g).
# The microcentrifuge separates the precipitate (undissolved drug) and total solubilized drug Total solubilized drug consists of three solubilized species: freely solubilized drug (“free drug”), drug associated with bile salt micelles (“micelle bound drug”), and drug in small aggregate roughly 50-300 nm in size (“colloidal drug”). The ultracentrifuge further separates the colloidal drug and the supernatant contains only free drug and micelle bound drug. […]
smiles,measurement,setting,value
"CNC(=O)c1ccc(N2C(=S)N(c3ccc(C#N)c(C(F)(F)F)c3)C(=O)C2(C)C)cc1F [Enzalutamide, enzalutamide, reference compound]",TGI (Tumor Growth Inhibition),PC-3,0%
same,TGI (Tumor Growth Inhibition),LNCaP95,<0%
same,TGI (Tumor Growth Inhibition),LNCaP,>100%
same,TGI (Tumor Growth Inhibition),HID28,<0%
same,TGI (Tumor Growth Inhibition),VCaP tumors,66%
"CC(C)(c1ccc(OCc2ccnc(NS(C)(=O)=O)n2)cc1)c1cc(Cl)c(OCCCl)c(C#N)c1 [amorphous form of Compound A, N-(4-((4-(2-(3-chloro-4-(2-chloroethoxy)-5-cyanophenyl)propan-2-yl)phenoxy)methyl)pyrimidin-2-yl)methanesulfonamide]",solubility,"[1]; 0.5% wt simulated intestinal fluid (SIF) in pH 6.5 PBS, fassgf or other biorelevant, 0.5% SIF (pH 6.5)",> 25 µg/mL
same,solubility,"[1]; pH 6.5 phosphate-buffered saline (PBS), aqueous buffer, pH 6.5 PBS",> 2.5 µg/mL
same,amorphous solubility relative to crystalline solubility,[1]; simulated intestinal media,at least 20 ×
"CC(C)(c1ccc(OCc2ccnc(NS(C)(=O)=O)n2)cc1)c1cc(Cl)c(OCCCl)c(C#N)c1 [Crystalline Compound A, N-(4-((4-(2-(3-chloro-4-(2-chloroethoxy)-5-cyanophenyl)propan-2-yl)phenoxy)methyl)pyrimidin-2-yl)methanesulfonamide]","Concentration, IB (90 min)",[2],7 μgA/mL
